From article PMC9416253, “Automated Radiosynthesis, Preliminary In Vitro/In Vivo Characterization of OncoFAP-Based Radiopharmaceuticals for Cancer Imaging and Therapy” (Pharmaceuticals, 2022)
Where two headings read alike, the source gives them in different places. Blank lines part the entries; values can stand above or below the compound they belong to.

Assays:
[1] = In vitro stability in saline solution (bulk solution), HPLC/iTLC; assay type: physicochemical
Procedure: The in vitro stability of the radiopharmaceuticals preparations in saline solution was evaluated on the bulk solution i.e., with the highest radioactive concentration. In addition, the in vitro stability of radiopharmaceutical preparations was tested by incubating 10 MBq of each radiolabeled compounds in 1 mL of human plasma at 37 °C. Small aliquots of bulk solution were analyzed by HPLC and iTLC and 10 µL of plasma solution were analyzed by iTLC at 30, 60, 90, 120, 150 and 180 min for [^68Ga]Ga-DOTAGA/NODAGA-OncoFAP derivatives, 50, 100, 150 and 200-min for [^18F]AlF-NOTA/NODAGA-OncoFAP or 1, 3, 6, 12, 24, and 2, 3, 4, 7 and 9 days for [^177Lu]Lu-DOTAGA-OncoFAP, as show in Figure 3.

[2] = Lipophilicity by shake-flask method (n-octanol/saline or PBS); assay type: physicochemical; conditions: room temperature; for LogD7.4: n-octanol/PBS; for LogP: n-octanol/saline solution
Procedure: Lipophilicity was determined by partitioning between n-octanol and saline solution (LogP) or PBS (LogD7.4) at room temperature using the conventional shake-flask method. An aliquot of the formulated solution containing ~500 kBq of radiopharmaceuticals was added to a tube containing 6 mL of n-octanol/saline solution or n-octanol/PBS (1:1 v/v, LogP or LogD7.4, respectively). The tubes were shaken for 20 min, followed by centrifugation (5000× g for 5 min) and separation of the phases. Aliquots of 1 mL of the organic and the aqueous phases were taken, and the activity was measured using an automated gamma counter. The LogP or LogD7.4 were calculated as the decadic logarithm of [activity (cpm/mL) in n-octanol]/[(activity (cpm/mL) in saline solution or PBS].

[3] = test system: FAP-positive tumor; design: method as in PMID 35589404; conditions: cited from earlier work
[4] = molecular target: T1, recombinant hFAP (Homo sapiens, UniProt Q12884); assay: Co-elution experiment with recombinant hFAP on PD-10 size exclusion columns; assay type: binding; conditions: 500 kBq radioligand, hFAP 2 μM 100 μL, PD-10 column
T1 sequence (Q12884 1-760): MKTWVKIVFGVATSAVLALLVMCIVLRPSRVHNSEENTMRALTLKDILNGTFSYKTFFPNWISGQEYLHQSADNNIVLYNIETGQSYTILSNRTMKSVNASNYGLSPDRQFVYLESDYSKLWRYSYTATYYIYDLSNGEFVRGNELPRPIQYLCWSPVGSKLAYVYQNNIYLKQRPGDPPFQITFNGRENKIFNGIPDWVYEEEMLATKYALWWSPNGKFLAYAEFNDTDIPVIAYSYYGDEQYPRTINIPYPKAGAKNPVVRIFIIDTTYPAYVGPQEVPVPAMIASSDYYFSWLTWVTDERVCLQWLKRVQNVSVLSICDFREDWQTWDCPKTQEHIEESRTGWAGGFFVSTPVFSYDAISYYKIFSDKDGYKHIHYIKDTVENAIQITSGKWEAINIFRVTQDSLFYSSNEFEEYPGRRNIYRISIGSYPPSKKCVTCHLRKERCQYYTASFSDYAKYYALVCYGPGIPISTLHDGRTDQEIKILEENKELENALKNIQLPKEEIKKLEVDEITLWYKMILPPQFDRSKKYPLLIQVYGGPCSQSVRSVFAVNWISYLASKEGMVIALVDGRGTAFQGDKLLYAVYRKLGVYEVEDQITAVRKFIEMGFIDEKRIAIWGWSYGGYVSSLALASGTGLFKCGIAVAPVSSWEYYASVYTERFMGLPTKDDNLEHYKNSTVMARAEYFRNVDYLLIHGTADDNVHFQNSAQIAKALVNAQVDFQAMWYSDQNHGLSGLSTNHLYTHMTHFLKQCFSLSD
Procedure: To assess the binding properties of radiolabeled OncoFAP-derivatives preparations to hFAP, [^68Ga]/[^18F]AlF/[^177Lu]-OncoFAP derivatives (500 kBq) were incubated with hFAP (2 μM, 100 μL) and then loaded on PD-10 columns, pre-equilibrated with running buffer (50 mM Tris, 100 mM NaCl, and 1 mM ethylenediaminetetraacetic acid [EDTA], pH = 7.4) and eluted with running buffer. Fractions of the flow through (500 μL) were collected, and the radioactivity intensity was measured immediately on a gamma counter (λ = 511 KeV for gallium-68 and fluorine-18 and λ = 208 KeV for lutetium-177).

[5] = test system: FAP-expressing tumor models; design: method as in PMID 34957527; conditions: cited from earlier work
[6] = molecular target: FAP; design: method as in PMID 33850024; conditions: read-out: dissociation constant; cited from earlier work
[7] = test system: SK-RC-52.hFAP cells; assay: Cell binding assay on FAP-positive SK-RC-52.hFAP cells; assay type: cell-based; conditions: 0.1 MBq, 37 °C, 1.5 × 10^5 cells each tube
Procedure: Cell binding assays were performed in triplicate on SK-RC-52.hFAP and SK-R-RC-52.wt cells (density of 1.5 × 10^5 cells each tube), growth in RPMI-1640 medium (Gibco) containing 10% Fetal Bovine Serum (Gibco) and 1% Antibiotic-Antimycotic (Gibco) at 37 °C in 5% carbon dioxide (CO2). After adding [^68Ga]Ga-DOTAGA-OncoFAP, [^177Lu]Lu-DOTAGA-OncoFAP or [^18F]AlF-NOTA-OncoFAP (10 µL, 0.1 MBq) to the culture medium, the cells were incubated at 37 °C for 10, 30, 60 min for ^68Ga-derivatives and 10, 30, 60, 120, 240 min for ^18F-derivatives or 10, 30, 60, 120, 240, 360 min and 24 and 48 h for the ^177Lu-derivative. As a control, nonspecific binding determination was carried out by incubating with the OncoFAP derivatives complex with the non-radioactive isotopes reference standard (100 µM) with the same cell lines for 5 min before incubation with the radiolabeled compounds. After incubation, the cell pellets were washed twice with 1 mL of cold PBS (pH 7.4), centrifuged (400× g, 5 min) and the pellet measured by an automatic gamma counter (WIZARD2, PerkinElmer, Waltham, MA, USA).

[8] = test system: HT-1080.hFAP tumors; assay: In vivo biodistribution in mice bearing subcutaneous HT-1080.hFAP tumors
Procedure: Tumor cells were grown to 80% confluence in Dulbecco’s Modified Eagle Medium (DMEM) supplemented with 10% Fetal Bovine Serum (Thermofisher, Waltham, MA, USA) and 1% antibiotic-antimycotic (Gibco) and detached with Trypsin-EDTA 0.05%. HT-1080.hFAP, cells (FAP positive cells) were resuspended in Hanks’ Balanced Salt Solution medium. Aliquots of 5 × 10^6 cells (100 μL of suspension) were injected subcutaneously in the right flanks of female athymic Balb/c AnNRj-Foxn1 mice (6 to 8 weeks of age, Janvier-labs, Le Genest-Saint-Isle, France). Female athymic Balb/c AnNRj-Foxn1 mice (6 to 8 weeks of age) were implanted in the right flank with HT-1080.hFAP tumors as described above. Tumors were allowed to grow to an average volume of 250 mm^3. Mice were randomized (n = 5 per group) and injected intravenously with radiolabeled preparations of [^18F]AlF-NOTA-OncoFAP (10 nmol/mice; 77 kBq; RCP:89%). Mice were euthanized 1 h after the injection by CO2 asphyxiation. Organs were extracted, weighted, and radioactivity was measured with a Packard Cobra Gamma Counter. Values are expressed as percent ID/g ± SD.

[9] = molecular target: hCAIX (Homo sapiens, UniProt Q16790); assay: Co-elution experiment with hCAIX (non-target protein) on PD-10 columns; assay type: binding; conditions: PD-10 column
Procedure: NODAGA-OncoFAP labeling with 177Lu and characterization
Figure S1. (A) Radiolabeling reaction scheme of OncoFAP-NODAGA with 177Lu in acetate buffer (pH=4) at 95°C for 15 min. (B) Coelution experiment of [177Lu]Lu-NODAGA-OncoFAP-with hFAP and hCAIX on PD-10 size exclusion chromatography columns. (C) Radio-HPLC analysis performed after labeling reaction.
NODAGA-OncoFAP can be efficiently labeled with 177Lu by heating at 95°C in acetate buffer (pH=4) for 15 min. [Figure S1A] […]
been observed. [Figure S1C] […]

[10] = 1-h time point, 500 nmol/kg i.v.

radiolysis ([1]; every 24 h, without gentisic acid): about 10%
stability at high radioactive concentrations ([1]; in words, without stabilizer): intrinsic instability
radiolysis ([1]; within 8 days, with addition of 20 mg of gentisic acid as radical scavenger): about 2%
LogD7.4 [2]: -1.85± 0.05
LogP [2]: -2.01± 0.08
SMILES: N#C[C@@H]1CC(F)(F)CN1C(=O)CNC(=O)c1ccnc2c(NC(=O)CCC(=O)NCCNC(=O)CCC(C(=O)O)N3CCN(CC(=O)[O-])CCN(CC(=O)[O-])CCN(CC(=O)[O-])CC3)cccc12.[177Lu+3] (stereo partly shown) [[^177Lu]Lu-DOTAGA-OncoFAP]
uptake in the FAP-positive tumor ([3]; 10 min after injection): 32 % injected dose [ID]/g
tumor uptake ([3]; at 24 h p.i.): ~ 4 % ID/g
sustained uptake in the lesions ([3]; over the first 6 h time window): higher than 20 % ID/g

LogD7.4 [2]: -2.88±0.16
LogP [2]: -3.02± 015
SMILES: N#C[C@@H]1CC(F)(F)CN1C(=O)CNC(=O)c1ccnc2c(NC(=O)CCC(=O)NCCNC(=O)CCC(C(=O)O)N3CCN(CC(=O)[O-])CCN(CC(=O)[O-])CC3)cccc12.[18F][Al+2] (stereo partly shown) [[^18F]AlF-NODAGA-OncoFAP]

complex formation with recombinant hFAP (co-elution) [4]: forms a stable complex
LogD7.4 [2]: -2.39 ± 0.12
LogP [2]: -2.57± 0.15
SMILES: N#C[C@@H]1CC(F)(F)CN1C(=O)CNC(=O)c1ccnc2c(NC(=O)CCC(=O)NCCNC(=O)CCC(C(=O)O)N3CCN(CC(=O)[O-])CCN(CC(=O)[O-])CCN(CC(=O)[O-])CC3)cccc12.[68Ga+3] (stereo partly shown) [[^68Ga]Ga-DOTAGA-OncoFAP]
tumor-to-blood ratio ([5]; at 1 h p.i.): 8.6 ± 5.1
tumor-to-blood ratio ([5]; at 3 h p.i.): 38.1 ± 33.1

LogD7.4 [2]: -2.19± 0.11
LogP [2]: -2.38± 0.11
SMILES: N#C[C@@H]1CC(F)(F)CN1C(=O)CNC(=O)c1ccnc2c(NC(=O)CCC(=O)N3CCN(C(=O)CN4CCN(CC(=O)[O-])CCN(CC(=O)[O-])CC4)CC3)cccc12.[68Ga+3] [[^68Ga]Ga-NOTA-OncoFAP]

SMILES: N#C[C@@H]1CC(F)(F)CN1C(=O)CNC(=O)c1ccnc2c(NC(=O)CCC(=O)O)cccc12 [OncoFAP]
Kd [6]: 0.68 nM

LogD7.4 [2]: -2.48± 0.09
LogP [2]: -2.68± 0.14
SMILES: N#C[C@@H]1CC(F)(F)CN1C(=O)CNC(=O)c1ccnc2c(NC(=O)CCC(=O)NCCNC(=O)CCC(C(=O)[O-])N3CCN(CC(=O)[O-])CCN(CC(=O)[O-])CC3)cccc12.[68Ga+3] (stereo partly shown) [[^68Ga]Ga-NODAGA-OncoFAP]

LogD7.4 [2]: -2.01± 0.25
LogP [2]: -2.15± 0.18
tumor-to-blood ratio [8, 10]: 6.5
tumor-to-kidney ratio [8, 10]: 4.3
tumor accumulation ([8]; 1 h post intravenous injection, 500 nmol/kg, HT-1080.hFAP): 6.6 % ID/g
SMILES: N#C[C@@H]1CC(F)(F)CN1C(=O)CNC(=O)c1ccnc2c(NC(=O)CCC(=O)N3CCN(C(=O)CN4CCN(CC(=O)[O-])CCN(CC(=O)[O-])CC4)CC3)cccc12.[18F][Al+2] [[^18F]AlF-NOTA-OncoFAP]
absolute binding value [7]: 0.25%

complex formation with recombinant hFAP (co-elution) [4]: strong affinity
interaction with hCAIX (co-elution) [9]: no significant interaction
SMILES: N#C[C@@H]1CC(F)(F)CN1C(=O)CNC(=O)c1ccnc2c(NC(=O)CCC(=O)NCCNC(=O)CCC(C(=O)[O-])N3CCN(CC(=O)[O-])CCN(CC(=O)[O-])CC3)cccc12.[177Lu+3] (stereo partly shown) [[177Lu]Lu-NODAGA-OncoFAP]
